Source: patent US8202863B2 (Aventis Pharmaceuticals Inc., priority 2005, dated 2012)

Assays:
[1] = molecular target: T1, Hematopoietic PGD2 Synthase (Homo sapiens, UniProt O60760); assay: Fluorescence Polarization Assay or EIA assay (which one not stated); type: biochemical; conditions: assay not assigned in b678 (Fluorescence Polarization or EIA)
Method: (§1) The compounds of the present invention can be tested for enzymatic inhibiting activity against PGD2 Synthase according to either one of the following assays.
(§2) Assay 1: Fluorescence Polarization Assay
(§3) As described in PCT publication WO 2004/016223, Example II.
Assay 2: Enzyme Immunoassay (EIA) Method
• 2. Dilute 2 μL of each above concentration of compound to 38 μL of reaction buffer in 96-well plates and mix. IV. Enzyme and Substrate Solution Preparation • 1. Preparation of 0.39 ng/μL enzyme solution (0.35 ng/μL at final after compound addition). • Mix 4 μL of 4 mg/mL human h-PGDS with 396 μL of reaction buffer (to give enzyme concentration 40 μg/mL). Add 46.8 μL of 40 μg/mL h-PGDS to 4.753 mL of reaction buffer to give a total volume of 4.8 mL • 2. Preparation of Substrate Solution (PGH2): Add 0.375 mL of 0.1 mg/mL of PGH2 to 1.625 mL acetone. V. Enzyme Reaction: • 1. Add 60 μL of enzyme solution to compound well and positive control (without compound) in U-bottom polypropylene plate on ice. • 2. Add 60 μL of reaction buffer and 6.6 μL of 5% DMSO in reaction buffer into negative control wells in the plate. • 3. Add 6.6 μL of diluted compound in reaction buffer to the compound wells and mix. • 4. Add 6.6 μL of 5% DMSO in reaction buffer to the positive control well. • 5. Incubate the plate in ice for at least 30 min. • 6. Add 20 μL of substrate (PGH2) solution to compound, negative and positive control wells in the U-bottom 96 well plate on ice. • 7. Dry the plate in cold room for about 25-28 min. • 8. Pipette 45 μL of enzyme solution (above) into 96-wells with dried PGH2 and mix 3 times. Incubate on the ice for 1 min. • 9. Add 45 μL of FeCl2 solution into each wells and mix. • 10. Add 90 μL of MOX solution and mix. • 11. Incubate for 30 min at 60° C. • 12. Dilute the samples 2500× with EIA buffer. VI. EIA assay • Perform the assay according to the procedure in EIA kit provided by Cayman. Total PGD2 levels (pg/mL) were determined in the samples by EIA kits (Caymen Chemical, Catalog No. 500151) Calculate amount of PGD2 as below • Calculated % Positive control according to the equation below; % Positive control=(Compound value−Negative control)/(Positive value-Negative control value)×100. % Positive control=(Compound value-Negative control)×100(Positive Value-Negative Control Value) • Compound value=PGD2 levels (pg/mL) obtained from the standard curve in EIA assay for the samples with compound • Negative control value=PGD2 levels (pg/mL) obtained from the standard curve in EIA assay for the samples without enzyme • Positive control value=PGD2 levels (pg/mL) obtained from the standard curve in EIA assay for the samples with enzyme but without compound • IC50s are determined by excel fit to get the x value when y=½Ymax using 4 parameter logistic model for the IC50 curves. Results

PGDS = conditions: literature report; cited from earlier work
guinea pig = guinea pig model; cited from earlier work
rat = rat model; cited from earlier work
[2] = molecular target: T1, Hematopoietic PGD2 Synthase; assay: Fluorescence Polarization Assay (Assay 1); type: binding; conditions: assigned
Description: as §1, §2, §3

T1 sequence (O60760 whole entry): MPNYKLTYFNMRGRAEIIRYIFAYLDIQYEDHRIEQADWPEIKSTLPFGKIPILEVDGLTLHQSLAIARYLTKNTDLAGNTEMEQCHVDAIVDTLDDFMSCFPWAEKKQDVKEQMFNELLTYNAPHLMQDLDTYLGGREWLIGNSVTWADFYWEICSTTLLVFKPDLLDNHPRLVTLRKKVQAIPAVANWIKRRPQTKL

Compound | IC50 [1] | IC50 [2] | other results
CCOP(=O)(Cc1ccc(NC(=O)c2cnc(-c3ccccc3)nc2)cc1)OCC [Example 98] | 38 nM |  | 
O=C(Nc1ccc2nc(CCN3CCCC3)oc2c1)c1cnc(-c2ccccc2)nc1 [Example 11, 2-Phenyl-pyrimidine-5-carboxylic acid [2-(2-pyrrolidin-1-yl-ethyl)-benzooxazol-6-yl]-amide] | 18 nM |  | 
c1ccc(C(OC2CCN(CCCc3nn[nH]n3)CC2)c2ccccc2)cc1 [HQL-79] |  |  | PGDS inhibition (PGDS): weak PGDS inhibitor; antiasthmatic effect (guinea pig): antiasthmatic; antiasthmatic effect (rat): antiasthmatic
O=C(Nc1ccc2[nH]ncc2c1)c1cnc(-c2ccccc2)nc1 [Example 83, 2-Pheny-pyrimidine-5-carboxylic acid (1H-indazol-5-yl)-amide] |  | 23 nM | 
O=C(NCc1cccc(S(=O)(=O)NCCc2c[nH]cn2)c1)c1cnc(-c2cccc(F)c2)nc1 [Example 60, 2-(3-Fluoro-phenyl)-pyrimidine-5-carboxylic acid 3-[2-(1H-imidazol-4-yl)-ethylsulfamoyl]-benzylamide] | 61 nM |  | 
O=C(NCCc1ccc2c(c1)OCO2)c1cnc(-c2ccccc2)nc1 [Example 82, 2-Phenyl-pyrimidine-5-carboxylic acid (2-benzo[133]dioxol-5-yl-ethyl)-amide] |  | 2 nM | 
O=C(NCCc1c[nH]cn1)c1cnc(-c2ccccc2)nc1 [Example 34, 2-Phenyl-pyrimidine-5-carboxylic acid [2-(1H-imidazol-4-yl)-ethyl]-amide] |  | 35 nM | 
O=C(NCc1ccc2occc2c1)c1cnc(-c2ccccc2)nc1 [Example 90, 2-Pheny-pyrimidine-5-carboxylic acid (benzofuran-5-ylmethyl)-amide] | 7 nM |  | 
O=C(Nc1cc[nH]c(=O)n1)c1cnc(-c2ccccc2)nc1 [Example 29, 2-Phenyl-pyrimidine-5-carboxylic acid (2-oxo-1,2-dihydro-pyrimidin-4-yl)-amide] | 15 nM |  | 
CCOP(=O)(CCCCNC(=O)c1cnc(-c2ccccc2)nc1)OCC [Example 99, {4-[(2-Phenyl-pyrimidine-5-carbonyl)-amino]-butyl)-phosphonic acid diethyl ester] | 23.5 nM |  | 
Cc1nc(-c2ncc(C(=O)NC3CCOCC3)cn2)no1 [Example 77, 2-(5-Methyl-[1,2,4]oxadiazole-3-yl)-pyrimidine-5-carboxylic acid (tetrahydro-pyran-4-yl)-amide] | 514 nM |  | 
O=C(Nc1ccc2c(c1)CS(=O)(=O)N2)c1cnc(-c2ccccc2)nc1 [Example 8, 2-Phenyl-pyrimidine-5-carboxylic acid (2,2-dioxo-2,3-dihydro-1H-2lamda*6*-benzo[c]isothiazol-5-yl)-amide] |  | 2.5 nM | 
O=C(NC1CCN(Cc2ncc[nH]2)CC1)c1cnc(-c2ccccc2)nc1 [Example 9] |  | 2 nM | 
CCOP(=O)(OCC)C(NC(=O)c1cnc(-c2ccccc2)nc1)c1ccccc1 (stereo not drawn) [Example 101, {Phenyl-[(2-phenyl-pyrimidine-5-carbonyl)-amino]-methyl)-phosphonic acid diethyl ester] | 48 nM |  | 
O=C(NCc1ccc(-c2cnns2)cc1)c1cnc(-c2ccccc2)nc1 [Example 84] |  | 6.5 nM | 
NC(=O)c1ccc(CNC(=O)c2cnc(-c3ccccc3)nc2)cc1 [Example 92, 2-Pheny-pyrimidine-5-carboxylic acid 4-carbamoyl-benzylamide] | 16 nM |  | 
O=C(NCCN1CCNC1=O)c1cnc(-c2ccccc2)nc1 [Example 33, 2-Phenyl-pyrimidine-5-carboxylic acid [2-(2-oxo-imidazolidin-1-yl)-ethyl]-amide] |  | 32 nM | 
O=C(Nc1ccccc1)c1cnc(C2CCCCC2)nc1 [Example 114, 2-Cyclohexyl-pyrimidine-5-carboxylic acid phenylamide] |  | 4960 nM | 
O=C(NCc1ccc(N2CCOCC2)cc1)c1cnc(-c2ccccc2)nc1 [Example 87, 2-Pheny-pyrimidine-5-carboxylic acid 4-morpholin-4-ylbenzylamide] | 12 nM |  | 
